In US12083105B2, “Compositions and methods for treating adult-onset neuronal ceroid lipofuscinosis (Kufs disease)” (CORNELL UNIVERSITY, priority 2020, dated 2024):

Tested on: synaptic SNARE-complex
Experiment: SNARE-complex assembly in primary neurons (Syb-2 immunoprecipitation, co-IP of Synt-1 and SNAP-25)
Format: cell-based, mice
Details: CSPα^L115R and CSPα^L116Δ expressing neurons; 200 μM, 72 h; compared to vehicle only; FIG. 3E
Description: For the experiments shown in FIGS. 3A-3E, primary cortical neurons from neonatal CSPα^−/− mice were infected with lentiviruses expressing Myc-tagged CSPα^WT, CSPα^L115R, CSPα^L116Δ, SSPα, or empty lentivirus (Control) on 7 days in vitro (DIV) and examined on 17 DIV. […] The lentivirus infected cells were stained using antibodies against Myc (green), somatodendritic marker MAP2 (red), and counterstained with nuclear stain DAPI (blue). […] Immunoprecipitation (IP) for SNAP-25 was followed by quantitative immunoblotting of the co-immunoprecipitated (co-IP'd) CSPα (top blot), and normalized to the IP'd SNAP-25 (bottom blot). IP: Control=sham IP without IgG. Palm=palmitoylated. […] N.D.=not detected. […] Immunoprecipitation using anti-synaptobrevin-2 (Syb-2) antibody was followed by quantitative immunoblotting of co-IP'd SNARE-complex partners syntaxin-1 (Synt-1) and SNAP-25. […] Cell extracts were separated by SDS-PAGE, and subjected to quantitative immunoblotting using anti-SNAP-25 antibody and β-actin for normalization. To measure palmitoylation, oligomers were disrupted by lysing neurons in 0.1 N HCl plus 0.1% Triton X-100 for 20 min at 4° C., followed by SDS-PAGE and quantitative immunoblotting against CSPα. […] FIG. 3D (right panel) show quantitation of oligomers, palmitoylated CSPα, respectively, in corresponding lane and expressed as a percentage of total. […]

Row | Structure (SMILES) | level of co-immunoprecipitated Synt-1 and SNAP-25 (SNARE-complex assembly)
1 | CC(=O)N(O)CCCCCNC(=O)CCC(=O)N(O)CCCCCNC(=O)CCC(=O)N(O)CCCCCN [Dfx, N′-[5-(Acetyl-hydroxy-amino)pentyl]-N-[5-[3-(5-aminopentyl-hydroxy-carbamoyl)propanoylamino]pentyl]-N-hydroxy-butane diamide] | increased level
2 | Cc1c(O)c(=O)ccn1C [L1, 3-hydroxy-1,2-dimethyl-4(1H)-pyridone] | increased level
